# Laboratory results from patent US8530387B2, “Dithiinopyridazinone derivatives” (Bayer CropScience AG, priority 2010, dated 2013).
# What was measured:
# [1] = logP by HPLC on reversed-phase column (C18), EEC Directive 79/831 Annex V.A8; format: physicochemical; details: for Log P: pH 2.7
# Protocol: The logP values reported in the preparation examples and tables above are determined in accordance with EEC Directive 79/831 Annex V.A8 by means of HPLC (High Performance Liquid Chromatography) on a reversed-phase column (C18). Temperature: 43° C. […] Calibration takes place using unbranched alkan-2-ones (having 3 to 16 carbon atoms) of which the logP values are known (logP values determined on the basis of the retention times, by linear interpolation between two successive alkanones). The lambda-max values were determined on the basis of the UV spectra from 200 nm to 400 nm in the maxima of the chromatographic signals.
# Alternaria solani = experiment: Alternaria test (tomato)/protective; format: in vivo; details: young tomato plants, protective spray, 1500 ppm, evaluation 7 days following inoculation
# Text: Alternaria Test (Tomato)/Protective • Solvent: 49 parts by weight of N,N-dimethylformamide • Emulsifier: 1 part by weight of alkylaryl polyglycol ether An appropriate preparation of active compound is produced by mixing 1 part by weight of active compound with the stated amounts of solvent and emulsifier and diluting the concentrate with water to the desired concentration. To test for protective activity, young tomato plants are sprayed with the preparation of active compound at the stated application rate. […] Subsequently the plants stand at 96% relative humidity and a temperature of 20° C. After 7 days following inoculation, evaluation takes place.
# Phytophthora infestans = format: in vivo; details: young tomato plants, protective spray, 1500 ppm, evaluation 7 days following inoculation
# Puccinia recondita = experiment: Puccinia test (wheat)/protective; format: in vivo; details: young wheat plants, protective spray, 1500 ppm, evaluation 7-9 days following inoculation
# Text: Puccinia Test (Wheat)/Protective • Solvent: 49 parts by weight of N,N-dimethylformamide • Emulsifier: 1 part by weight of alkylaryl polyglycol ether An appropriate preparation of active compound is produced by mixing 1 part by weight of active compound with the stated amounts of solvent and emulsifier and diluting the concentrate with water to the desired concentration. To test for protective activity, young wheat plants are sprayed with the preparation of active compound at the stated application rate. […] Subsequently the plants stand at 80% relative humidity and at a temperature of 20° C. After 7-9 days following inoculation, evaluation takes place.
# Plasmopara viticola = experiment: Plasmopara test (grapevine)/protective; format: in vivo; details: young grapevine plants, protective spray, 250 ppm, evaluation 6 days following inoculation
# Venturia inaequalis = experiment: Venturia test (apple)/protective; format: in vivo; details: young apple plants, protective spray, 250 ppm, evaluation 10 days following inoculation
# Protocol: Venturia Test (Apple)/Protective […] An appropriate preparation of active compound is produced by mixing 1 part by weight of active compound with the stated amounts of solvent and emulsifier and diluting the concentrate with water to the desired concentration. To test for protective activity, young plants are sprayed with the preparation of active compound at the stated application rate. […] Subsequently the plants are placed in a greenhouse at approximately 21° C. and approximately 90% humidity. After 10 days following inoculation, evaluation takes place.
compound,measurement,setting,value
N#CC1=C(C#N)Sc2c(c(=O)n3n(c2=O)CCOCC3)S1 [Compound 6],Log P,[1],1.51
same,Efficacy in %,Alternaria solani,86%
same,Efficacy in %,Phytophthora infestans,75%
same,Efficacy in %,Puccinia recondita,95%
CCCn1c(=O)c2c(c(=O)n1CCC)SC(C#N)=C(C#N)S2 [Compound 4],Log P,[1],2.80
same,Efficacy in %,Alternaria solani,93%
same,Efficacy in %,Phytophthora infestans,94%
same,Efficacy in %,Puccinia recondita,95%
"N#CC1=C(C#N)Sc2c(c(=O)n3n(c2=O)CCCC3)S1 [Compound 2, 5,12-dioxo-5,7,8,9,10,12-hexahydro[1,4]dithiino[2,3-d]pyridazino[1,2-a]pyridazine-2,3-dicarbonitrile]",chromatographic logP,"[1]; HPLC, C18, 43° C., acidic range pH 2.7 (0.1% aqueous formic acid/acetonitrile), read-out: Log P",1.74
same,Efficacy in %,Alternaria solani,93%
same,Efficacy in %,Phytophthora infestans,88%
same,Efficacy in %,Plasmopara viticola,100%
same,Efficacy in %,Puccinia recondita,95%
same,Efficacy in %,Venturia inaequalis,89%
Cn1c(=O)c2c(c(=O)n1C)Sc1c(c(=O)n(C)n(C)c1=O)S2 [Compound 10],Log P,[1],0.74
N#CC1=C(C#N)Sc2c(c(=O)n3n(c2=O)CCC3)S1 [Compound 8],Log P,[1],1.20
same,Efficacy in %,Alternaria solani,86%
same,Efficacy in %,Phytophthora infestans,75%
same,Efficacy in %,Puccinia recondita,95%
CCn1c(=O)c2c(c(=O)n1CC)SC(C#N)=C(C#N)S2 [Compound 3],Log P,[1],2.05
same,Efficacy in %,Alternaria solani,86%
same,Efficacy in %,Phytophthora infestans,75%
same,Efficacy in %,Puccinia recondita,95%
CCn1c(=O)c2c(c(=O)n1C)SC(C#N)=C(C#N)S2 [Compound 9],Log P,[1],1.72
same,Efficacy in %,Alternaria solani,86%
same,Efficacy in %,Phytophthora infestans,94%
same,Efficacy in %,Plasmopara viticola,93%
same,Efficacy in %,Puccinia recondita,95%
same,Efficacy in %,Venturia inaequalis,86%
CCCn1c(=O)c2c(c(=O)n1C)SC(C#N)=C(C#N)S2 [Compound 7],Log P,[1],2.08
same,Efficacy in %,Alternaria solani,93%
same,Efficacy in %,Phytophthora infestans,88%
same,Efficacy in %,Puccinia recondita,80%
Cn1c(=O)c2c(c(=O)n1C)SC(C#N)=C(C#N)S2 [Compound 1],Log P,[1],1.39
same,Efficacy in %,Puccinia recondita,90%
CCCn1c(=O)c2c(c(=O)n1CC)SC(C#N)=C(C#N)S2 [Compound 5],Log P,[1],2.46
same,Efficacy in %,Alternaria solani,93%
same,Efficacy in %,Phytophthora infestans,94%
same,Efficacy in %,Plasmopara viticola,95%
same,Efficacy in %,Puccinia recondita,95%
same,Efficacy in %,Venturia inaequalis,95%
